Experiment [1] concerns Mutans Streptococci Strains. Briefly: MIC and MBC, broth dilution, all strains stated together. It is filed as cell-based, S. mutans (GS-5 and UA159) and S. sobrinus 6715. As to the method: (§1) The minimum inhibitory concentration (MIC) and minimum bactericidal concentration (MBC) were determined for each test compound according to the National Committee for Clinical Laboratory Standards guidelines (Tentative standard M26-T, 1992; NCCLS Publication No. M7-A5, 2000) and Koo et al. (2000b). The broth microdilution and macrodilution methods (in TSB) were used for the antibacterial tests. The starting inoculum was 5×10^5 CFU/ml and the concentrations of test compounds ranged from 15.6 to 500 μM (two-fold dilutions). The MICs and MBCs were determined in quadruplicate in at least 3 different experiments.
In general terms: Broth dilution looks for growth in wells or tubes with falling amounts of substance.

For experiment [2], the system named is Streptococcus sobrinus 6715. Description: MIC and MBC, broth dilution. The experiment is classed as cell-based. The note with it: Streptococcus sobrinus 6715. As to the method: as §1
Experiment [3] has as its system Streptococcus mutans UA 159. Briefly: MIC and MBC, broth dilution. The experiment is classed as cell-based. As to the method: as §1
Experiment [4] deals with Streptococcus mutans GS-5. Briefly: MIC and MBC, broth dilution. It is filed as cell-based. As to the method:
as §1

Setting [5] is: Streptococcus mutans, all strains tested (S. mutans GS-5, UA159, S. sobrinus 6715), read-out: MIC.

In brackets after ≈: the same amount, converted by molar mass. Where two headings read alike, the source gives them in different places.

As a reminder, the MIC is the least concentration at which growth counts as inhibited. Take `COc1cc(C=O)ccc1O` [Vanillin]: in experiment [1] (setting [5]), the MIC is greater than 500 µM.

As for `COc1cc(/C=C/C(=O)O)ccc1O` [Ferulic acid], the MIC in experiment [1] (setting [5]) is greater than 500 µM.

The molecule `COc1cc(C=O)cc(OC)c1O` [Syringaldehyde] yielded an MIC in experiment [1] (Streptococcus mutans) greater than 500 µM.

As for `O=C(O)c1ccccc1` [Benzoic acid], the MIC in experiment [1] (Streptococcus mutans) was greater than 500 µM.

Regarding `O=c1cc(-c2ccc(O)c(O)c2)oc2cc(O)cc(O)c12` [Luteolin], in experiment [1] (setting [5]), the MIC is greater than 500 µM.

One may read the MBC as the lowest tested concentration that kills the bacteria rather than only halting them. Higher therefore signals less potent killing. As for `O=c1cc(-c2ccccc2)oc2cc(O)c(O)c(O)c12` [Baicalein], the MIC in experiment [1] (all strains tested (S. mutans GS-5, UA159, S. sobrinus 6715), read-out: MIC) was 500 µM (≈ 135 µg/mL); in experiment [2], 500 µM (≈ 135 µg/mL); in experiment [3], 500 µM (≈ 135 µg/mL); in experiment [4], 500 µM (≈ 135 µg/mL). Moreover, the MBC in experiment [2], in experiment [3] and in experiment [4] was greater than 500 µM in each case.

The values are drawn from patent US20040057908A1, “Oral compositions and use thereof” (priority 2003, published 2004).
